Columns and labels:
[1] = design: method as in PMID 34440640; details: s.c., doses 0.3 mg/kg up to 3 mg/kg; cited from earlier work
[2] = test system: C57BL/6J mice; test: Forced swim test; assay type: in vivo, mouse; details: ACD856 1 mg/kg s.c. five days; ketamine single dose 10 mg/kg seven days prior to swimming session
Procedure: Depression-like behavior was assessed in male C57BL/6J mice using a modified version of the FST, as described previously. This included a two-day protocol test, with pre-exposure to water 24 h prior to the test (day one of FST), which seems to be a more accurate and sensitive technique in detecting depression-like behavior in mice than the standard method of a single exposure (one day test). Animals were individually placed in a vertical glass cylinder (50 cm high, 20 cm in diameter, CMA) filled with tap water up to 35 cm (25 ± 0.5 °C). Two swimming sessions were conducted: a 10 min pre-test (day one) followed 24 h later (day two) by a 6 min test session. The total duration of immobility, as well as latency to the first immobility, were recorded during the 6 min test. After each swimming session, the mice were gently removed and placed in a home cage together with dry napkins. Immobility was defined as floating passively in an upright position in water with only small movements necessary to keep the head above the water’s surface. The floating time was considered an index of depression-like behavior. The glass cylinder was cleaned thoroughly between each animal.

[3] = test system: ERK1/2 and Trk-receptors phosphorylation; test: Western blot of pERK1/2 and phospho-Trk in cortical neurons stimulated with growth factors; assay type: cell-based, mouse; details: 10 ng/mL factor, 20 min
Procedure: (§1) Figure 2 Increased activation of TrkB and downstream signaling through ERKK1/2 MAPK phosphorylation by BDNF and ACD856. Levels of phosphorylated TrkB receptors were determined by ELISA in SH-SY5Y cells overexpressing the human TrkB receptor (a). Effect of 0 (open bars), 10 (light grey bars), or 30 ng BDNF/mL (dark grey bars) and time course on BDNF-induced TrkB tyrosine phosphorylation are depicted as the mean of one experiment performed in quadruplicates +/− SEM * p < 0.05. SH-SY5Y-TrkB cells were incubated with 30 ng BDNF/mL for 10 min in the absence (DMSO) or presence of increasing concentrations of ACD856 (b). […] Data shown are the mean value +/− SEM from three independent experiments where each experiment was performed using at least 5 technical repeats. The effect of different neurotrophic factors on the phosphorylation of ERK1/2 and Trk-receptors was investigated (c). Cortical neurons were stimulated with 10 ng/mL of the indicated factors, and the levels of pERK1/2 (upper panel), phospho-Trk (tyrosine 674/675) (mid panel), and beta-actin as a loading control (lower panel) were analyzed by Western blot. Primary cortical neurons were incubated with 300 nM ACD856 for the indicated time periods in the absence of exogenous BDNF (d). The levels of phosphorylated ERK1/2 were determined by immunocytochemistry, and the total count per well of pERK1/2-positive neurites was determined. Fluorescence image at ×10 magnification showing phospho-ERK1/2 detected with immunocytochemistry in cortical neurons (e). * p < 0.05, ** p < 0.01 compared to control group at one-way ANOVA with Dunnett’s multiple comparisons test. Data shown are the mean value of all replicates +/− SEM from three different experiments.
Phosphorylated ERK 1/2 (pERK1/2) levels were evaluated in mouse primary neurons between DIV10–15. Cells were seeded at (60 × 10^4 cells) in 6-well plates coated with poly-D-Lysine. The activation of the Trk signaling pathway was induced with 10 ng/mL ligand for 20 min. Cells were thereafter immediately lysed on ice, sonicated, and denatured at 95 °C for 10 min on a heating block. Proteins were separated on a Novex Bis-Tris 4–12% gel and transferred to a PVDF membrane using an iBlot instrument (Invitrogen). The membrane was blocked using 5% BSA in TBS-T followed by incubation with anti-phospho-p44/42 MAPK (ERK1/2) rabbit monoclonal antibody (Cell Signaling CS-4370) (dilution 1:1000) in TBS-T with 0.1% BSA for at least 60 min. […] After washing, a Western blot detection reagent (Forte, Millipore) was added, and immunoreactive proteins were detected by luminescence using C-DiGit Blot Scanner and quantified with Image Studio™ Software (version 5.2). […]

[4] = test system: primary cortical neurons; test: Resazurin assay, energy-deprived primary cortical neurons; assay type: cell-based, mouse; details: 10 ng/mL, no glucose or pyruvate, vs untreated cells
Procedure: (§2) Metabolic activity was determined by measuring reduction in resazurin (a). […] Data shown are the means of all replicates +/− SEM from at least three different primary cultures. * p-value < 0.05, ** p-value < 0.01, *** p-value < 0.001, **** p-value < 0.0001 compared to control group at one-way ANOVA with Dunnett’s multiple comparisons test.
Cells were seeded at […] in 96-well plates and treated at DIV4–5 in Neurobasal-A media with 2% B27 and 2 mM glutamine (no glucose or pyruvate was present). Two hours after treatment, a 10% volume of resazurin ready-to-use solution was added to the cell culture media, and the plates were returned to the incubator for a further four hours. Resazurin reduction is directly proportional to metabolic function and was evaluated fluorometrically at 540 nm excitation and 580 nm emission wavelengths using a SpectraMax iD5 plate reader. Results were presented as a percentage change compared to the control group.

[5] = test system: primary cortical neurons; test: Mitochondrial ToxGlo assay (ATP levels, cell membrane integrity), energy-deprived primary neurons; assay type: cell-based, mouse; details: for cell membrane integrity: glucose and pyruvate withdrawal; for ATP levels: neurotrophins, 6 h, no glucose or pyruvate
Procedure: as §2
Mitochondrial ToxGlo assay was used to evaluate the cell membrane integrity and the ATP levels of PCN cells. At DIV4–5, cells seeded at […] in 96-well plates were treated for six and three hours with increasing doses of neurotrophins and ACD856, respectively, in Neurobasal-A media containing 2% B27 and 2 mM glutamine. No glucose or pyruvate was present in the cell media to prevent non-mitochondrial ATP production from glycolysis. Then, bis-AAF-R110, a fluorogenic substrate that is exclusively cleaved by proteases released from membrane-compromised cells, was added, and the plate was incubated at 37 °C for 30 min. Fluorescence was measured at 485 nm (Ex)/530 nm (Em) using a SpectraMax iD5 plate reader. Next, the ATP detection reagent was added, and luminescence was measured after 5 min incubation to assess ATP levels in lysed cells.

[6] = target: T1, human TrkB receptor (Homo sapiens, UniProt Q16620); test: Phospho-TrkB ELISA in SH-SY5Y cells overexpressing TrkB; assay type: cell-based; details: 10 or 30 ng BDNF/mL, time course
T1 construct: host or cells: SH-SY5Y (human neuroblastoma) stably expressing TrkB
Procedure: as §1, with “The effect of different neurotrophic factors on the phosphorylation of ERK1/2 and Trk-receptors was investigated (c).” left out, “Primary cortical neurons were incubated with 300 nM ACD856 for the indicated time periods in the absence of exogenous BDNF (d).” left out, “Data shown are the mean value of all replicates +/− SEM from three different experiments.” left out

Cc1cc(-n2c(=O)[nH]c(=O)n(C)c2=O)ccc1Oc1ccc(S(=O)(=O)C(F)(F)F)cc1 [ACD855]
pro-cognitive effects in cognition models [1]: potent pro-cognitive effects

CNC1(c2ccccc2Cl)CCCCC1=O (stereo not shown) [Ketamine, ketamine]
prolonged effect on immobility time in forced swim test [2]: prolonged antidepressive-like effects

BDNF: recombinant human brain-derived neurotrophic factor (PeproTech 450-02)
phosphorylation of ERK1/2 [3]: the most effective growth factors with respect to inducing phosphorylation of ERK1/2 | phosphorylation of Trk-receptors (pY674/675) [3]: the only growth factors that induced phosphorylation of Trk-receptors | metabolic activity (reduction of resazurin) [4]: significantly higher fluorescence | cell membrane integrity [5]: improved cell membrane integrity | ATP levels [5]: able to increase ATP levels

NGF: recombinant human nerve growth factor (PeproTech 450-01)
metabolic activity (reduction of resazurin) [4]: significantly higher fluorescence | cell membrane integrity [5]: improved cell membrane integrity | ATP levels [5]: able to increase ATP levels

B1: BDNF: recombinant human brain-derived neurotrophic factor (PeproTech 450-02) (protein, UniProt P23560 19-247, looked up)
Neurotrophic factor BDNF …: APMKEANIRGQGGLAYPGVRTHGTLESVNGPKAGSRGLTSLADTFEHVIEELLDEDQKVRPNEENNKDADLYTSRVMLSSQVPLEPPLLFLLEEYKNYLDAANMSMRVRRHSDPARRGELSVCDSISEWVTAADKKTAVDMSGGTVTVLEKVPVSKGQLKQYFYETKCNPMGYTKEGCRGIDKRHWNSQCRTTQSYVRALTMDSKKRIGWRFIRIDTSCVCTLTIKRGR
BDNF-induced TrkB tyrosine phosphorylation [6]: in a dose- and time-dependent manner, increase TrkB phosphorylation

B2: NT3: neurotrophin-3, binds to TrkC (protein, UniProt P20783 139-257, looked up)
Neurotrophin-3: YAEHKSHRGEYSVCDSESLWVTDKSSAIDIRGHQVTVLGEIKTGNSPVKQYFYETRCKEARPVKNGCRGIDDKHWNSQCKTSQTYVRALTSENNKLVGWRWIRIDTSCVCALSRKIGRT
phosphorylation of ERK1/2 [3]: the most effective growth factors with respect to inducing phosphorylation of ERK1/2 | phosphorylation of Trk-receptors (pY674/675) [3]: the only growth factors that induced phosphorylation of Trk-receptors

Source: paper PMC10342804, “Neuroprotective and Disease-Modifying Effects of the Triazinetrione ACD856, a Positive Allosteric Modulator of Trk-Receptors for the Treatment of Cognitive Dysfunction in Alzheimer’s Disease” (International Journal of Molecular Sciences, 2023)
